We go through 26 compounds from patent US11046649B2, “Compounds useful as inhibitors of indoleamine 2,3-dioxygenase and/or tryptophan dioxygenase” (Board of Regents, The University of Texas System, priority 2018, dated 2021).

The target in this test is T1, IDO1 (Homo sapiens, UniProt P14902).
T1 construct: endogenous in cells; host or cells: HeLa cells (ATCC), IDO1 induced with 10 ng/mL IFNgamma
The test is described as follows: IDO1 cell-based assay. As to conditions: HeLa cells, 10 ng/mL IFNgamma, 24 hours with test compound; N-Formyl Kynurenine and L-tryptophan quantified by RFMS.

T1 sequence (P14902 whole entry): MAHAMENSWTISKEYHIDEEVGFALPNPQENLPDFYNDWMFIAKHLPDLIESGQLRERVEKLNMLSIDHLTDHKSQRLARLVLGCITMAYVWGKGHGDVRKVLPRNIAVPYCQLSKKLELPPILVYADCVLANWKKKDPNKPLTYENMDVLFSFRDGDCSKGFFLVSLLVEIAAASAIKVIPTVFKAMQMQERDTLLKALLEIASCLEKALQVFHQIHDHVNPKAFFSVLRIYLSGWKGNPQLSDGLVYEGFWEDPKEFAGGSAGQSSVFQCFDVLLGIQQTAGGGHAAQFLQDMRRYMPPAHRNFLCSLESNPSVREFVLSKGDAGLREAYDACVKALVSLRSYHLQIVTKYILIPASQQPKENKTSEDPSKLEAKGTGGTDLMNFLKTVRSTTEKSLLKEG

The term IC50 denotes the concentration that gives 50% inhibition. As for `CC(C(=O)Nc1ccc(C2CC2)nc1)[C@H]1[C@@H]2C[C@@H](Oc3ccnc4ccc(F)cc34)C[C@@H]21` (stereo partly drawn) [Example 63, N-(6-cyclopropylpyridin-3-yl)-2-((1R,3s,5S,6r)-3-((6-fluoroquinolin-4-yl)oxy)-bicyclo[3.1.0]hexan-6-yl)propanamide], 1.4 nM corresponded to half-maximal inhibition (IC50). Next, `C[C@H](C(=O)Nc1ccc(-c2cnn(C)c2)cc1)[C@H]1[C@@H]2C[C@@H](n3cnc4cc(F)c(F)cc43)C[C@@H]21` [Example 65, (S)-2-((1R,3R,5S,6r)-3-(5,6-difluoro-1H-benzo[d]-imidazol-1-yl)-bicyclo[3.1.0]hexan-6-yl)-N-(4-(1-methyl-1H-pyrazol-4-yl)phenyl)-propanamide]: 170 nM. Consider `Cc1ncc(-c2ccc(NC(=O)[C@@H](C)[C@H]3[C@@H]4C[C@@H](n5cnc6cc(F)c(F)cc65)C[C@@H]43)cc2)cn1` [Example 66, (S)-2-((1R,3R,5S,6r)-3-(5,6-difluoro-1H-benzo[d]-imidazol-1-yl)bicyclo-[3.1.0]hexan-6-yl)-N-(4-(2-methylpyrimidin-5-yl)-phenyl)propanamide], for which the IC50 worked out at 1140 nM. `Cc1ccc(-c2ccc(NC(=O)[C@@H](C)[C@H]3[C@@H]4C[C@@H](n5cnc6cc(F)c(F)cc65)C[C@@H]43)cc2)cn1` [Example 67, (S)-2-((1R,3R,5S,6r)-3-(5,6-difluoro-1H-benzo[d]-imidazol-1-yl)-bicyclo[3.1.0]hexan-6-yl)-N-(4-(6-methylpyridin-3-yl)phenyl)propanamide] displayed an IC50 of 261 nM. Compared with the last compound, the IC50 is about 4.4-fold lower. On to `C[C@H](C(=O)Nc1ccc(-c2cnn(CC(=O)O)c2)cc1)[C@H]1[C@@H]2C[C@@H](n3cnc4cc(F)c(F)cc43)C[C@@H]21` [Example 69, 2-(4-(4-((S)-2-((1R,3R,5S,6r)-3-(5,6-difluoro-1H-benzo[d]-imidazol-1-yl)bicyclo-[3.1.0]hexan-6-yl)-propanamido)phenyl)-1H-pyrazol-1-yl)acetic acid], for which 5550 nM corresponded to half-maximal inhibition (IC50). `Cc1nnc(-c2ccc(NC(=O)[C@@H](C)[C@H]3[C@@H]4C[C@@H](n5cnc6cc(F)c(F)cc65)C[C@@H]43)cc2)s1` [Example 70, (S)-2-((1R,3R,5S,6r)-3-(5,6-difluoro-1H-benzo[d]-imidazol-1-yl)bicyclo-[3.1.0]hexan-6-yl)-N-(4-(5-methyl-1,3,4-thiadiazol-2-yl)phenyl)propanamide] came in with an IC50 of 238 nM. The same measure for `CC(C(=O)Nc1nnc(C(F)(F)F)[nH]1)[C@H]1[C@@H]2C[C@@H](Oc3ccnc4ccc(F)cc34)C[C@@H]21` (stereo partly drawn) [Example 74, 2-((1R,3s,5S,6r)-3-((6-fluoroquinolin-4-yl)oxy)-bicyclo[3.1.0]hexan-6-yl)-N-(5-(trifluoromethyl)-4H-1,2,4-triazol-3-yl)-propanamide]: 156 nM; for `CC(C(=O)Nc1ccc(C#N)nn1)[C@H]1[C@@H]2C[C@@H](Oc3ccnc4ccc(F)cc34)C[C@@H]21` (stereo partly drawn) [Example 76, N-(6-cyanopyridazin-3-yl)-2-((1R,3s,5S,6r)-3-((6-fluoroquinolin-4-yl)oxy)-bicyclo[3.1.0]hexan-6-yl)-propanamide]: 4.6 nM. As for `CC(C(=O)Nc1nc[nH]n1)[C@H]1[C@@H]2C[C@@H](Oc3ccnc4ccc(F)cc34)C[C@@H]21` (stereo partly drawn) [Example 77, 2-((1R,3s,5S,6r)-3-((6-fluoroquinolin-4-yl)oxy)-bicyclo[3.1.0]hexan-6-yl)-N-(1H-1,2,4-triazol-3-yl)-propanamide], the IC50 came to 111 nM. As to `C[C@H](C(=O)Nc1ccc(-c2ccc(C#N)nc2)cc1)[C@H]1[C@@H]2C[C@@H](n3cnc4cc(F)c(F)cc43)C[C@@H]21` [Example 79, (S)-N-(4-(6-cyanopyridin-3-yl)phenyl)-2-((1R,3R,5S,6r)-3-(5,6-difluoro-1H-benzo[d]-imidazol-1-yl)bicyclo-[3.1.0]hexan-6-yl)-propanamide], the IC50 was 878 nM. In turn, `Cc1nnc(-c2ccc(NC(=O)[C@@H](C)[C@H]3[C@@H]4C[C@@H](n5cnc6cc(F)c(F)cc65)C[C@@H]43)cc2)o1` [Example 81, (S)-2-((1R,3R,5S,6r)-3-(5,6-difluoro-1H-benzo[d]-imidazol-1-yl)-bicyclo[3.1.0]hexan-6-yl)-N-(4-(5-methyl-1,3,4-oxadiazol-2-yl)phenyl)-propanamide] gave a half-inhibitory concentration (IC50) of 710 nM. The same measure for `C[C@H](C(=O)Nc1ccc(-c2ccc(C#N)cn2)cc1)[C@H]1[C@@H]2C[C@@H](n3cnc4cc(F)c(F)cc43)C[C@@H]21` [Example 83, (S)-N-(4-(5-cyanopyridin-2-yl)phenyl)-2-((1R,3R,5S,6r)-3-(5,6-difluoro-1H-benzo[d]-imidazol-1-yl)bicyclo-[3.1.0]hexan-6-yl)-propanamide]: 845 nM; for `C[C@H](C(=O)Nc1ccc(-c2ccc(F)cn2)cc1)[C@H]1[C@@H]2C[C@@H](n3cnc4cc(F)c(F)cc43)C[C@@H]21` [Example 85, (S)-2-((1R,3R,5S,6r)-3-(5,6-difluoro-1H-benzo[d]-imidazol-1-yl)bicyclo-[3.1.0]hexan-6-yl)-N-(4-(5-fluoropyridin-2-yl)phenyl)-propanamide]: 1910 nM. For `C[C@H](C(=O)Nc1ccc(-c2ccc(C(F)(F)F)nc2)cc1)[C@H]1[C@@H]2C[C@@H](n3cnc4cc(F)c(F)cc43)C[C@@H]21` [Example 86, (S)-2-((1R,3R,5S,6r)-3-(5,6-difluoro-1H-benzo[d]-imidazol-1-yl)bicyclo-[3.1.0]hexan-6-yl)-N-(4-(6-(trifluoromethyl)pyridin-3-yl)phenyl)propanamide], half-maximal inhibition (IC50) was put at 568 nM. This IC50 is about 3.4-fold lower than that of the compound before. `CC(C(=O)Nc1cc2ccccn2n1)[C@H]1[C@@H]2C[C@@H](Oc3ccnc4ccc(F)cc34)C[C@@H]21` (stereo partly drawn) [Example 87, 2-((1R,3s,5S,6r)-3-((6-fluoroquinolin-4-yl)oxy)-bicyclo[3.1.0]hexan-6-yl)-N-(pyrazolo[1,5-a]pyridin-2-yl)propanamide] gave an IC50 of 3 nM. Take `C[C@H](C(=O)Nc1ccc(-c2cnc[nH]2)cc1)[C@H]1[C@@H]2C[C@@H](n3cnc4cc(F)c(F)cc43)C[C@@H]21` [Example 90, (S)-N-(4-(1H-imidazol-5-yl)phenyl)-2-((1R,3R,5S,6r)-3-(5,6-difluoro-1H-bcnzo[d]-imidazol-1-yl)bicyclo-[3.1.0]hexan-6-yl)-propanamide]: the IC50 amounted to 550 nM. This IC50 lies about 180-fold higher than the previous one. Take `CC(C)n1cc(-c2ccc(NC(=O)[C@@H](C)[C@H]3[C@@H]4C[C@@H](n5cnc6cc(F)c(F)cc65)C[C@@H]43)cc2)cn1` [Example 91, (S)-2-((1R,3R,5S,6r)-3-(5,6-difluoro-1H-benzo[d]-imidazol-1-yl)bicyclo-[3.1.0]hexan-6-yl)-N-(4-(1-isopropyl-1H-pyrazol-4-yl)phenyl)propanamide]: 504 nM corresponded to half-maximal inhibition (IC50). Next, `C[C@H](C(=O)Nc1ccc(-c2ccc(F)cc2)cc1)[C@H]1[C@@H]2C[C@@H](n3cnc4cc(F)c(F)cc43)C[C@@H]21` [Example 93, (S)-2-((1R,3R,5S,6r)-3-(5,6-difluoro-1H-benzo[d]-imidazol-1-yl)bicyclo-[3.1.0]hexan-6-yl)-N-(4′-fluoro-[1,1′-biphenyl]-4-yl)propanamide]: 329 nM. Next, `CC(C(=O)NC1CCN(C(=O)OC(C)(C)C)CC1)[C@H]1[C@@H]2C[C@@H](Oc3ccnc4ccc(F)cc34)C[C@@H]21` (stereo partly drawn) [Example 94, tert-butyl 4-(2-((1R,3s,5S,6r)-3-((6-fluoroquinolin-4-yl)oxy)-bicyclo[3.1.0]hexan-6-yl)-propanamido)piperidine-1-carboxylate]: 1090 nM; `CC(C(=O)Nc1nc2c(Br)cc(Cl)cc2s1)[C@H]1[C@@H]2C[C@@H](Oc3ccnc4ccc(F)cc34)C[C@@H]21` (stereo partly drawn) [Example 95, N-(4-bromo-6-chloro-benzo[d]thiazol-2-yl)-2-((1R,3s,5S,6r)-3-((6-fluoroquinolin-4-yl)-oxy)bicyclo[3.1.0]hexan-6-yl)propanamide]: 231 nM; `CC(C(=O)NC12CC(c3ccc(F)cc3)(C1)C2)[C@H]1[C@@H]2C[C@@H](Oc3ccnc4ccc(F)cc34)C[C@@H]21` (stereo partly drawn) [Example 100, N-(3-(4-fluorophenyl)-bicyclo[1.1.1]pentan-1-yl)-2-((1R,3s,5S,6r)-3-((6-fluoroquinolin-4-yl)-oxy)bicyclo[3.1.0]hexan-6-yl)propanamide]: 45.3 nM. `CC(C(=O)Nc1ccn(CC(F)(F)F)n1)[C@H]1[C@@H]2C[C@@H](Oc3ccnc4ccc(F)cc34)C[C@@H]21` (stereo partly drawn) [Example 105, 2-((1R,3s,5S,6r)-3-((6-fluoroquinolin-4-yl)oxy)-bicyclo[3.1.0]hexan-6-yl)-N-(1-(2,2,2-trifluoroethyl)-1H-pyrazol-3-yl)-propanamide] displayed an IC50 of 17.9 nM. This IC50 lies about 2.5-fold lower than the previous one. Next, `CC(C(=O)Nc1nc2ccccc2[nH]1)[C@H]1[C@@H]2C[C@@H](Oc3ccnc4ccc(F)cc34)C[C@@H]21` (stereo partly drawn) [Example 107, N-(1H-benzo[d]imidazol-2-yl)-2-((1R,3s,5S,6r)-3-((6-fluoroquinolin-4-yl)oxy)-bicyclo[3.1.0]hexan-6-yl)propanamide]: 9.2 nM; `CCC(C(=O)Nc1ccc(C(N)=O)cn1)[C@H]1[C@@H]2C[C@@H](Oc3ccnc4ccc(F)cc34)C[C@@H]21` (stereo partly drawn) [Example 118, 6-(2-((1R,3s,5S,6r)-3-((6-fluoroquinolin-4-yl)oxy)-bicyclo[3.1.0]hexan-6-yl)-butanamido)nicotinamide]: 21.3 nM. Regarding `CCC(C(=O)Nc1ccc(-n2cncn2)cn1)[C@H]1[C@@H]2C[C@@H](Oc3ccnc4ccc(F)cc34)C[C@@H]21` (stereo partly drawn) [Example 119, N-(5-(1H-1,2,4-triazol-1-yl)pyridin-2-yl)-2-((1R,3s,5S,6r)-3-((6-fluoro-quinolin-4-yl)oxy)-bicyclo[3.1.0]hexan-6-yl)-butanamide], half-maximal inhibition (IC50) required 6.9 nM. `CCC(C(=O)Nc1cnc(C)cn1)[C@H]1[C@@H]2C[C@@H](Oc3ccnc4ccc(F)cc34)C[C@@H]21` (stereo partly drawn) [Example 120, 2-((1R,3s,5S,6r)-3-((6-fluoroquinolin-4-yl)oxy)-bicyclo[3.1.0]hexan-6-yl)-N-(5-methylpyrazin-2-yl)-butanamide] came in with an IC50 of 1.43 nM.
